# Key:
# [1] = tested on: rheumatoid arthritis; conditions: cited from earlier work
# [2] = tested on: MS relapses and active EAE; conditions: during MS relapses and active EAE; cited from earlier work
# [3] = tested on: EAE mice; assay: EAE induced with PLP139-151 in SJL/J mice, daily clinical score; format: in vivo, mouse (SJL/J); conditions: for clinical status (mean clinical score), time of amelioration: recombinant human aPC variants 0.46 mg/kg daily i.v. from maximal paralysis until day 30, vs PBS
# Experimental: EAE induction, treatment with hirudin, aPC (WT and mutants), proliferation assays, cytokine analysis and quantitative histopathology. Mice were maintained in the Research Animal Facility at Stanford University. EAE was induced in 7-8 week old SJL/J female mice by subcutaneous immunization with 100 μg PLP139-151 in emulsion. For hirudin or aPC treatment, EAE mice (n=10/group) were treated with daily intravenous injection of hirudin (10 mg/kg) or mouse recombinant aPC-WT (0.2 mg/kg) at the peak of disease and compared with PBS treated group. Mice were assessed daily for clinical signs of EAE and scored according to: 0, no clinical disease; 1, tail weakness; 2, hindlimb weakness; 3, complete hindlimb paralysis; 4, hindlimb paralysis and some forelimb weakness; 5, moribund or dead.
# Recombinant human aPC-WT and mutants (aPC-L8W and aPC-K193E) were prepared as described by Grinnell et al (2007) Critical Care Medicine (suppl). These aPC variants have the following properties on aPTT and PAR-1 signaling function: aPC-WT: aPTT (relative activity)=1, PAR-1 (relative activity)=1, aPC-L8W: aPTT=1, PAR-1=0.02 and aPC-K193E: aPTT=0.03, PAR-1=1. EAE mice (n=7/group) were treated with daily intravenous injection of recombinant human aPC-WT, aPC-L8W, aPC-K193E (0.46 mg/kg) or PBS (control group) at the time of maximal paralysis and assessed daily until day 30.
# [4] = tested on: aPTT; conditions: cited from earlier work; for aPTT (relative activity): relative to aPC-WT
# [5] = target: T1, PAR-1 (Homo sapiens, UniProt P25116); conditions: cited from earlier work
# T1 sequence (P25116 22-425): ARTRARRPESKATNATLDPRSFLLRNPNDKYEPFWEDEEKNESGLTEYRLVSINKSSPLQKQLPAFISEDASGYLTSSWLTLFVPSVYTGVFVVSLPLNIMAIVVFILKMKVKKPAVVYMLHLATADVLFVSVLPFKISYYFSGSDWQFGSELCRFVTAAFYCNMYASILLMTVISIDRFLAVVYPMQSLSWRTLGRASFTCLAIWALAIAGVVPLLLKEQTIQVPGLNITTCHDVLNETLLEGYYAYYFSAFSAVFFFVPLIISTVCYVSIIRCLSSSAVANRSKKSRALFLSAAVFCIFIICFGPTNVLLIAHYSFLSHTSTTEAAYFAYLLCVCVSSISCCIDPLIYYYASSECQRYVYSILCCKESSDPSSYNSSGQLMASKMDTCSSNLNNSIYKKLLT
# [6] = tested on: splenocytes and lymph node cells; assay: In vitro proliferation (3H-thymidine) of splenocytes and lymph node cells from treated EAE mice, activated with PLP peptide; format: cell-based, mouse (SJL/J)
# Experimental: (§1) In vitro immune cell proliferation and cytokine analysis were performed as previously described (Ousman et al. (2007) Nature 448, 474-9). Briefly, splenocytes and lymph node cells harvested from EAE experiments were cultured in flat-bottomed, 96-well plates at a concentration of 0.5×10^6 cells/well in stimulation media (RPMI 1640 supplemented with 2 mM L-glutamine, 1 mM sodium pyruvate, 0.1 mM non-essential amino acids, 100 U/ml^2 Penicillin, 0.1 mg/ml^2 streptomycin, 0.5 μM 2-mercaptoethanol and 10% fetal calf serum) and activated with PLP139-151 peptide (5-20 μg/ml). To determine proliferation rates, cultures were pulsed with (^3H)-Thymidine (1 μCi per well) following 72-hour culture and harvested 18 hours later onto filter paper. The counts per minute (cpm) of incorporated ^3H-Thymidine were read using a beta counter. Cytokine levels (IL-2, IL-4, IL-6, IL-10, IL-12p40, IL-17, IFN-γ, TNF) were measured from the supernatant of cultured cells using anti-mouse OPTEIA ELISA kits (BD Pharmigen).
# [7] = tested on: splenocytes and lymph node cells; assay: Cytokine production (ELISA) of splenocytes and lymph node cells from treated EAE mice; format: cell-based, mouse (SJL/J)
# Experimental: as §1
# [8] = tested on: brain and spinal cord of EAE mice; assay: Quantitative histopathology: inflammatory foci in brain and spinal cord of EAE mice; format: in vivo, mouse (SJL/J)
# Experimental: For histopathological analysis, brains and spinal cord of EAE mice were fixed in 10% formaldehyde. […] paraffin sections were stained with LFB and H&E and the number of inflammatory foci within the brain and spinal cord were quantified by a neuropathologist who was blinded to the treatment and clinical parameters of the mice.
# [9] = tested on: primary peritoneal macrophages; assay: Peritoneal macrophage activation with LPS, cytokine ELISA; format: cell-based, mouse (SJL/J); conditions: 30 nM recombinant murine aPC pre-treatment, LPS 100 ng/ml
# Experimental: Primary peritoneal macrophages were isolated from naïve 8-9 weeks old SJL/J mice following intraperitoneal injection of thioglycollate (BD Diagnostic Systems) and cultured in complete medium (DMEM supplemented with 10% fetal bovine serum, 1 mM sodium pyruvate, […] and 0.1 mg/ml streptomycin). Cells (1×10^6 cells/ml) were treated with 30 nM recombinant murine aPC for 15 minutes, then activated with LPS 100 ng/ml (Sigma), harvested at different time points (15 min-72 hours), and cytokine levels were measured.
# [10] = tested on: primary astrocytes; assay: Primary astrocyte activation with LPS, cytokine ELISA; format: cell-based, mouse (SJL/J); conditions: 30 nM recombinant murine aPC pre-treatment, LPS 100 ng/ml
# Experimental: Astrocyte culture. Astrocytes were cultured from brain of one-day-old SJL/J pups as described previously. Briefly, the cerebral cortices from pups were minced, cells were disrupted by passing through a filter and cultured in complete DMEM. Purified astrocytes (50-80% confluent) were treated with 30 nM recombinant murine aPC for 15 minutes and activated with 100 ng/ml LPS (Sigma). Cells were harvested at 4, 24, 48 and 72-hours, and supernatant were analyzed by ELISA for cytokine production.
# [11] = tested on: purified T cells; assay: Purified T cell activation with CD3/CD28, cytokine ELISA; format: cell-based, mouse (SJL/J); conditions: 30 nM recombinant murine aPC pre-treatment, CD3/CD28 5 μg/ml
# Experimental: In vitro Immune cell activation assays and cytokine analysis. T lymphocytes were isolated from pooled splenocytes and lymph node cells from 8 week-old naïve SJL/J mice by negative selection (Pan T cell isolation kit, Miltenyi Biotech). Cells were pre-treated with 30 nM recombinant murine aPC for 15 mins at 37° C. followed by activation with CD3/CD28 (5 μg/ml) coated on 12 well plates. Cells were cultured at 5×10^6 cells/ml concentration in stimulation media. Culture plates were harvested at different time points (15 min-96 hours) and cytokine levels were measured from culture supernatant by ELISA.
# [12] = tested on: NF-κB signalling (IκB-α); assay: Western blot of IκB-α in T cells (NF-κB activation); format: cell-based, mouse (SJL/J); conditions: T cells treated with murine aPC, cell activation assay
# Experimental: Western blot analysis. For NF-κB activation, total cell lysate from purified T cells treated with aPC were analyzed by SDS-PAGE, transferred to PVDF membrane, probed with antibodies against IκB-α, and β-actin and the signal was visualized by enhanced chemiluminescence.
# [13] = Anti-hirudin antibodies in serum of treated EAE mice; format: in vivo, mouse; conditions: EAE mice treated with hirudin
# [14] = cells from aPC-treated vs PBS-treated mice
# [15] = hirudin 10 mg/kg daily i.v. from peak of disease
# [16] = cells from hirudin-treated vs vehicle-treated mice
compound,measurement,setting,value
"CN(Cc1cnc2nc(N)nc(N)c2n1)c1ccc(C(=O)N[C@@H](CCC(=O)O)C(=O)O)cc1 [MTX, Methotrexate]",patients having some response,[1],70%
same,onset of action,[1]; patients,4-6 weeks
Heparin,symptoms,[2],improve symptoms
aPC-K193E: recombinant human aPC mutant; mainly participates in PAR-1 signalling and lacks anticoagulant activities,"clinical status (mean clinical score), time of amelioration",[3],significant amelioration early in the disease course (days 20-25)
same,anticoagulant properties (in words),[4],lacks anticoagulant activities
same,aPTT (relative activity),[4],0.03
same,PAR-1 signalling (in words),[5],mainly participates in PAR-1 signalling
"aPC-L8W: recombinant human aPC mutant; retains anticoagulant properties but lacks PAR-1 signalling, defective EPCR interaction at L8","clinical status (mean clinical score), time of amelioration",[3],significant amelioration early in the disease course (days 20-25)
same,anticoagulant properties (in words),[4],retains anticoagulant properties
same,aPTT (relative activity),[4],1
same,PAR-1 signalling (in words),[5],lacks PAR-1 signalling
aPC-WT: recombinant human activated protein C wild type,"clinical status (mean clinical score), time of amelioration",[3],improvement in the latter part of disease course (days 25-30)
"aPC: recombinant murine activated protein C, provided by Lilly Research Laboratories",relapse rates,[3]; recombinant murine aPC 0.2 mg/kg,no effect
same,disease severity (mean clinical score),[3]; recombinant murine aPC 0.2 mg/kg daily i.v. from peak of disease vs PBS,significant amelioration of disease severity
same,immune cell proliferation in splenocytes and lymph node cells,[6]; [14],decreased immune cell proliferation
same,Th1 and Th17 cytokines,[7]; [14],inhibition
same,inflammatory foci in the CNS tissue,[8]; aPC-treated vs PBS,fewer inflammatory foci
same,IL6 production,[9],less
same,IL17 production,[9],less
same,IL6 production,[10],less
same,IL17 production,[10],less
same,IL17 levels,[11],low levels
same,IκB breakdown,[12],less IκB breakdown
"hirudin: thrombin inhibitor hirudin (Refludan, recombinant lepirudin, Berlex)",disease course,[3]; [15],no effect
same,relapse rates,[3]; [15],no effect
same,disease severity (mean clinical score),[3]; hirudin 10 mg/kg daily i.v. from peak of disease vs PBS,dramatic improvement of disease severity
same,time up to which amelioration of EAE was observed,[3]; hirudin treatment,≤ 35 days
same,immune cell proliferation,"[6]; cells from hirudin-treated vs PBS-treated mice, PLP activated",decreased immune cell proliferation
same,IL4 production,[7]; [16],no differences
same,IL-6 production,[7]; [16],suppression
same,IL-10 production,[7]; [16],no differences
same,IL-12 production,[7]; [16],no differences
same,IL-17 production,[7]; [16],suppression
same,interferon-γ (IFN-γ) production,[7]; [16],no differences
same,tumor necrosis factor (TNF) production,[7]; [16],suppression
same,inflammatory foci in brains and spinal cords,[8]; hirudin-treated vs PBS,fewer inflammatory foci
same,anti-hirudin antibodies in serum,[13],presence of anti-hirudin antibodies
